Measured values taken from ChEMBL document CHEMBL1201862, “PubChem BioAssay data set” (2004).
Calls of active or inactive are those of the source.

Tests used:
Format in all cases: functional
[1] = biological target: T1, Replicative DNA helicase DnaB (Mycobacterium tuberculosis, UniProt P9WMR3); assay: DnaB intein splicing inhibitors, dose response, biochemical, cell-free fluorescence (AID 449749)
T1 sequence (P9WMR3 whole entry): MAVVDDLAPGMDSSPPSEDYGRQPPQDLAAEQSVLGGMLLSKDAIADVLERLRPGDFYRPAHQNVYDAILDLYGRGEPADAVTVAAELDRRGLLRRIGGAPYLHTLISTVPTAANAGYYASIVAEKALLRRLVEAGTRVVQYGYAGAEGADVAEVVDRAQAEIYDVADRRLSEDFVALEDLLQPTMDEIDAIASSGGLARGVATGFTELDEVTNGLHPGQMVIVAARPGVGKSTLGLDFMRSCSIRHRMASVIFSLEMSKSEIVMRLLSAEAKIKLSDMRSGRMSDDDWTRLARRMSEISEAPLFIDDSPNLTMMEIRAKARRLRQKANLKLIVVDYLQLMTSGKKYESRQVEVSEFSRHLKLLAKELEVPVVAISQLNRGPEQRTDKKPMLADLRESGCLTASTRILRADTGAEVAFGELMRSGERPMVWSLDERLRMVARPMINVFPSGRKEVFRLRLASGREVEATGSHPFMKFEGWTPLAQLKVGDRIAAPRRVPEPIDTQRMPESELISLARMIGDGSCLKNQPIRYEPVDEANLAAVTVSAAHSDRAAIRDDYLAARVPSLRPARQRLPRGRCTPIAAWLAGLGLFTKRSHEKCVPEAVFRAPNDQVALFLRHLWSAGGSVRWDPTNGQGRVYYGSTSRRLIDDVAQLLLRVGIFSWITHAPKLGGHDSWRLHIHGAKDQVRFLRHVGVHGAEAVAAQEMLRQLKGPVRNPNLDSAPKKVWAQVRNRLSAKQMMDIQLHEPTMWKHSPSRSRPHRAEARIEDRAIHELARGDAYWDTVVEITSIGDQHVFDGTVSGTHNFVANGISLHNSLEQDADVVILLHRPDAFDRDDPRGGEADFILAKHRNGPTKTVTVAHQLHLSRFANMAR

[2] = biological target: T2, Heat shock factor protein 1 (Mus musculus, UniProt P38532); assay: decrease of HSF1-responsive luciferase luminescence – cell-based, NIH3T3, dose retest, confirmation (AID 2382);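 further: NIH3T3 fibroblasts with HSF1-driven luciferase reporter stressed by proteasome inhibitor MG132; luminescence from HSF1-driven luciferase expression after 8 hours of MG132 stress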
T2 sequence (P38532 whole entry): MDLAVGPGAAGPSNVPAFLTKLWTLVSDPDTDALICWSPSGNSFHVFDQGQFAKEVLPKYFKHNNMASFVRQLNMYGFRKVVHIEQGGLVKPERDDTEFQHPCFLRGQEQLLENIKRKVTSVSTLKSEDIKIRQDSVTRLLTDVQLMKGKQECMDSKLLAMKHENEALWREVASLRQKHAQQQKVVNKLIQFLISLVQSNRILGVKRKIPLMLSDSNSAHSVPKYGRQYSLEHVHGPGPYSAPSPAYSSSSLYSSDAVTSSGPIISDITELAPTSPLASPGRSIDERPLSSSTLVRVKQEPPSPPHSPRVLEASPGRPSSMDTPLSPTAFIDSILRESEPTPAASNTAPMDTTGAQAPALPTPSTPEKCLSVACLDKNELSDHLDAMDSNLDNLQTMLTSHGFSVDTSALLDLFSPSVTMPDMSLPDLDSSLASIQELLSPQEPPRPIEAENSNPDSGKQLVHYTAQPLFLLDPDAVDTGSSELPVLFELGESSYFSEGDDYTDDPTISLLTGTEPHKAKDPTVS

[3] = biological target: Proto-oncogene tyrosine-protein kinase ROS (Homo sapiens, UniProt P08922);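 further: ROS1 tested as one member of a kinome-wide kinase panel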
[4] = biological target: Protein kinase C zeta type (Homo sapiens, UniProt Q05513);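 further: measured as one member of a broad kinase profiling panel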
[5] = biological target: Serine/threonine-protein kinase pim-1 (Homo sapiens, UniProt P11309)
[6] = biological target: Glycogen synthase kinase-3 beta (Homo sapiens, UniProt P49841);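 further: value comes from a broad kinome profiling panel, with GSK3B as the panel member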
[7] = biological target: Tyrosine-protein kinase Lyn (Homo sapiens, UniProt P07948);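 further: lyn as one member of a kinase panel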
[8] = biological target: Serine/threonine-protein kinase PAK 1 (Homo sapiens, UniProt Q13153)
[9] = biological target: Tyrosine-protein kinase FRK (Homo sapiens, UniProt P42685);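 further: FRK tested as one member of a kinome panel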
[10] = biological target: STE20-like serine/threonine-protein kinase (Homo sapiens, UniProt Q9H2G2)
[11] = biological target: Serine/threonine-protein kinase TBK1 (Homo sapiens, UniProt Q9UHD2); assay: Navigating the Kinome. Panel member name: TBK1
[12] = biological target: Tyrosine-protein kinase JAK3 (Homo sapiens, UniProt P52333)
[13] = biological target: Homeodomain-interacting protein kinase 2 (Homo sapiens, UniProt Q9H2X6);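 further: measured within a kinome-wide kinase profiling panel, HIPK2 being one panel member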
[14] = biological target: Serine/threonine-protein kinase Nek2 (Homo sapiens, UniProt P51955)
[15] = biological target: Serine/threonine-protein kinase pim-3 (Homo sapiens, UniProt Q86V86);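 further: value obtained as one member of a broad kinase panel profiling effort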
[16] = biological target: Mitogen-activated protein kinase kinase kinase kinase 2 (Homo sapiens, UniProt Q12851);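 further: measured as one member of a kinome-wide kinase panel, with MAP4K2 as the panel entry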
Activated CDC42 kinase 1 = Activated CDC42 kinase 1 (Homo sapiens, UniProt Q07912); assay: Navigating the Kinome. Panel member name: ACK1
[17] = biological target: Casein kinase I isoform gamma-1 (Homo sapiens, UniProt Q9HCP0);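 further: measured as the CSNK1G1 member of a kinome profiling panel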
[18] = biological target: ALK tyrosine kinase receptor (Homo sapiens, UniProt Q9UM73);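 further: ALK tested as one member of a kinase panel screen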
[19] = biological target: Casein kinase II subunit alpha (Homo sapiens, UniProt P68400)
[20] = biological target: G protein-coupled receptor kinase 5 (Homo sapiens, UniProt P34947); assay: Navigating the Kinome. Panel member name: GPRK5
[21] = biological target: Receptor-type tyrosine-protein kinase FLT3 (Homo sapiens, UniProt P36888);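 further: FLT3 was tested as one member of a kinome-wide kinase panel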
[22] = biological target: Glycogen synthase kinase-3 alpha (Homo sapiens, UniProt P49840);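 further: GSK3A result taken from a broad kinome-wide kinase panel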

Chain of Proto-oncogene tyrosine-protein kinase ROS (P08922 whole entry): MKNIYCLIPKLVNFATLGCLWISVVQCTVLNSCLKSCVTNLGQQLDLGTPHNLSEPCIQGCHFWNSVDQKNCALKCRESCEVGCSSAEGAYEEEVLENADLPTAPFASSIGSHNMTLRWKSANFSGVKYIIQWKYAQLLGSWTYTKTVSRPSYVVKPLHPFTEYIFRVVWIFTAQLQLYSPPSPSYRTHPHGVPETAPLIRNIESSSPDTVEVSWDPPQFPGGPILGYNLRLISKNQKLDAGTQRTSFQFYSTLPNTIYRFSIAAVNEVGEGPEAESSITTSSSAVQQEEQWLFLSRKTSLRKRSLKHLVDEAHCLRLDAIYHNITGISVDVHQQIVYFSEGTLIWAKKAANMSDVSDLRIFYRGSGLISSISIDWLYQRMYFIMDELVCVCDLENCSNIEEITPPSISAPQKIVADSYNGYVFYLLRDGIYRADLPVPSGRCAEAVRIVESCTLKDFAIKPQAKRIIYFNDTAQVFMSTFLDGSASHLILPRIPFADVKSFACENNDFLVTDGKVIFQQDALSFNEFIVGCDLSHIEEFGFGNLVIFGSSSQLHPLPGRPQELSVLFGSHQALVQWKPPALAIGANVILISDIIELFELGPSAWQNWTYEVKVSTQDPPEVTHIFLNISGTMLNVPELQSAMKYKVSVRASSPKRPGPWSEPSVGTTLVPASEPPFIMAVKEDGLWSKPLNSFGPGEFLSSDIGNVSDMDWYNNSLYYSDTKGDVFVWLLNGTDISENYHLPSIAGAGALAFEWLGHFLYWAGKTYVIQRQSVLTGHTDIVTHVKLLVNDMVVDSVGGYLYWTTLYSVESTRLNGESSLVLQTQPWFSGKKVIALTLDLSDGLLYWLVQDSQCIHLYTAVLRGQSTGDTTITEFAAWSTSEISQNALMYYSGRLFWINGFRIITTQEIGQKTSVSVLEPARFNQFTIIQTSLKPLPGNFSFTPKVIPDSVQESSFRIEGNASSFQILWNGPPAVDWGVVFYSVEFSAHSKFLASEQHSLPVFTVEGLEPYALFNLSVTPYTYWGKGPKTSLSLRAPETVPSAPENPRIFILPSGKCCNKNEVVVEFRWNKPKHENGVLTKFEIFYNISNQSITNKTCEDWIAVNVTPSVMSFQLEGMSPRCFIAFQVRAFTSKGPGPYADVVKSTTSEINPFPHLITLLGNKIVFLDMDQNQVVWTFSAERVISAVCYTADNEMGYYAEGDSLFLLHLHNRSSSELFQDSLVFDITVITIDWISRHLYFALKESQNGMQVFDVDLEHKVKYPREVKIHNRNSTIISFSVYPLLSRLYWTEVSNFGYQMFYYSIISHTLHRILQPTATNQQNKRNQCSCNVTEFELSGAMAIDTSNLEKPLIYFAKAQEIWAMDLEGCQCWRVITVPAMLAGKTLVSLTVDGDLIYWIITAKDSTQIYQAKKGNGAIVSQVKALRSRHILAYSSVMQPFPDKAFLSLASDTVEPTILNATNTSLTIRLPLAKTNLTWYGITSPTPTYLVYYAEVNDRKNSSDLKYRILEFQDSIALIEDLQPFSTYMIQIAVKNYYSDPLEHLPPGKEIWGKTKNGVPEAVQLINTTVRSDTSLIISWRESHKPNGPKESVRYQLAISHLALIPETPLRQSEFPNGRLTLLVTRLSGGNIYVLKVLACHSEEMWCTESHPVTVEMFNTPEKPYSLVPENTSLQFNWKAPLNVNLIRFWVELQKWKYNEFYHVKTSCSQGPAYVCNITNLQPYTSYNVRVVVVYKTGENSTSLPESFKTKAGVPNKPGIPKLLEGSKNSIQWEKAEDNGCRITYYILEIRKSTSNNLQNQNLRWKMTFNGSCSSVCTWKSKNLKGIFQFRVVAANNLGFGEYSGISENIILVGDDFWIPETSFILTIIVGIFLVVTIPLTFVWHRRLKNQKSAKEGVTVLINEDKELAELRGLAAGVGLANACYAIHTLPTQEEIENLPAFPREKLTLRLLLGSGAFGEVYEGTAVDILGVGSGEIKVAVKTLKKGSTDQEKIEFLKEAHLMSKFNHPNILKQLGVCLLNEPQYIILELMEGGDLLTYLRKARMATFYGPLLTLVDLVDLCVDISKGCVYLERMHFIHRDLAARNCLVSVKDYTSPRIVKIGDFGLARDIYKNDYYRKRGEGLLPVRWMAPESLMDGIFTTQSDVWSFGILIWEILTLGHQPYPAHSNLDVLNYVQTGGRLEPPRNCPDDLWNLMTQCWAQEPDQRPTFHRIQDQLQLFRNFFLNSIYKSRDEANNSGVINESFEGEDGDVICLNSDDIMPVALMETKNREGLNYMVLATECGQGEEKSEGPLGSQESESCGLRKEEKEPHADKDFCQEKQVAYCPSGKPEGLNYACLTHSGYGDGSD
Chain of Serine/threonine-protein kinase pim-1 (P11309 whole entry): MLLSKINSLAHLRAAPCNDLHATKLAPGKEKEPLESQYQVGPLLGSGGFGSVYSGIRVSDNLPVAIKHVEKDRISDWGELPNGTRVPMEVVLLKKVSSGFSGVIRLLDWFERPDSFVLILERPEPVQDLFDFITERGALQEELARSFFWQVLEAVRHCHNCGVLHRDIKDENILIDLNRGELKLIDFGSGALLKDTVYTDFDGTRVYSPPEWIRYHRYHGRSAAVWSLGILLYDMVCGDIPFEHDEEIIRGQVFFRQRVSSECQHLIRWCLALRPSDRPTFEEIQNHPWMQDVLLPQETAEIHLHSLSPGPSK
Chain of G protein-coupled receptor kinase 5 (P34947 whole entry): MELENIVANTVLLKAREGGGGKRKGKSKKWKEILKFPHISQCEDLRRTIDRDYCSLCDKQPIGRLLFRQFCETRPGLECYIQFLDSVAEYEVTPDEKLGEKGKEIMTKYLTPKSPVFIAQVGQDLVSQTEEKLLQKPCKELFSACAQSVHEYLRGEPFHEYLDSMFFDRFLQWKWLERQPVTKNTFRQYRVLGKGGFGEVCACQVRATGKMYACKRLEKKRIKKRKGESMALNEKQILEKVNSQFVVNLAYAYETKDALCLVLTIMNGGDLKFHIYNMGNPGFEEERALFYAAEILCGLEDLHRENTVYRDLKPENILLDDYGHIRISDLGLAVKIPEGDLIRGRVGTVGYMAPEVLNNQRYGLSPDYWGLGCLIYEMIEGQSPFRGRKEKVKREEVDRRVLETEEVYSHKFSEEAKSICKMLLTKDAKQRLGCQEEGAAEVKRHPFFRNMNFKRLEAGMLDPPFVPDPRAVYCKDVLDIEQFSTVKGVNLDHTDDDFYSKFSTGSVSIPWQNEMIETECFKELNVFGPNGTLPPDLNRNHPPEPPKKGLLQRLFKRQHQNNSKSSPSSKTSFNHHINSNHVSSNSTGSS
Chain of Serine/threonine-protein kinase TBK1 (Q9UHD2 whole entry): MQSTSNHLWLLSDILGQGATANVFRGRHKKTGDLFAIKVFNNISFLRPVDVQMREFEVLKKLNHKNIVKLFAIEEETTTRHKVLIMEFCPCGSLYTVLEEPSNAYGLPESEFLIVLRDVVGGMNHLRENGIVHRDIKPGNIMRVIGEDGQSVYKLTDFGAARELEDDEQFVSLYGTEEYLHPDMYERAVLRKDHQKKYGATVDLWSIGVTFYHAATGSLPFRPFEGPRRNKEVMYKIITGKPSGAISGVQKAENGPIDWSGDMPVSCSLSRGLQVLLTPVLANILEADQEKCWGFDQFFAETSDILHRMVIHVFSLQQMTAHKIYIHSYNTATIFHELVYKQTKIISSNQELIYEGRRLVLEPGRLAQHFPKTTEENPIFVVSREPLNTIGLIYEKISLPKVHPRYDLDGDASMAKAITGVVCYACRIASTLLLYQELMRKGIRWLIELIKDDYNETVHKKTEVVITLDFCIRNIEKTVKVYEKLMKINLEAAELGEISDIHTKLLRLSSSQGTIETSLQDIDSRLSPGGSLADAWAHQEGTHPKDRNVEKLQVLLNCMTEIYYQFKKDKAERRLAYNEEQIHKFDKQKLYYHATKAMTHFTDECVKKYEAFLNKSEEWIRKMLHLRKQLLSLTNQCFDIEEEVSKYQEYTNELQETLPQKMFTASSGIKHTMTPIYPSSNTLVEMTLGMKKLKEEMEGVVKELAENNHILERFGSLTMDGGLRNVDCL
Chain of Serine/threonine-protein kinase PAK 1 (Q13153 whole entry): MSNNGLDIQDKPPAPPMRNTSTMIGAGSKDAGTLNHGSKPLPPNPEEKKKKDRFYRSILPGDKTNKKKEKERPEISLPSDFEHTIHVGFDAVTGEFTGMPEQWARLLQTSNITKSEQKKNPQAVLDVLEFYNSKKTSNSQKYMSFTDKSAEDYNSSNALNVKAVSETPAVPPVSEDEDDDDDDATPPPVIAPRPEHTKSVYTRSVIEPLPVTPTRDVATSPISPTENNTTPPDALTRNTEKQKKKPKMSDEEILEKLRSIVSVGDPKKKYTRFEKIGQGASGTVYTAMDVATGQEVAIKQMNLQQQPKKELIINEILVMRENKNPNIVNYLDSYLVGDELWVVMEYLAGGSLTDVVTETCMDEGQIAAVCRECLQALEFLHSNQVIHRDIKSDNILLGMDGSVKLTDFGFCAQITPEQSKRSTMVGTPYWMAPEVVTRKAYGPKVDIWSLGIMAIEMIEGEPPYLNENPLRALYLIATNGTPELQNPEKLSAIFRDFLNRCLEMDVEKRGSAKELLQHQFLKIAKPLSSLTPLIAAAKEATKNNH
Chain of Casein kinase II subunit alpha (P68400 whole entry): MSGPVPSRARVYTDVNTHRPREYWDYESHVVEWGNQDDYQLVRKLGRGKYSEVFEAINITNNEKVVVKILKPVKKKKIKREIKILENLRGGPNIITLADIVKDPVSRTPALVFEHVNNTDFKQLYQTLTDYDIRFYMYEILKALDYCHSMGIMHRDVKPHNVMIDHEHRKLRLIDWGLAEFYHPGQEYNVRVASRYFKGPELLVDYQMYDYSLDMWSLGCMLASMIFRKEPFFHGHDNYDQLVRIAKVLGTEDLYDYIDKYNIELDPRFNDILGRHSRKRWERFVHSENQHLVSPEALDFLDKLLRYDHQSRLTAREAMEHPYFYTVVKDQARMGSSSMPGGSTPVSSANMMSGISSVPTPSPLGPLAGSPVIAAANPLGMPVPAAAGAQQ

NS(=O)(=O)c1ccc(NC2=CC(=O)C(=O)c3ccccc32)cc1
AC50 [1]: 1.84 µM (active) | EC50 [2]: > 195 µM (not active)

Clc1cc(-c2c[nH]c3ncccc23)nc(NC2CCCCC2)n1
Ki [3]: > 2 µM (inactive) | Ki [4]: > 7.94 µM (inactive) | Ki [5]: > 5.01 µM (inactive) | Ki [6]: > 1 µM (inactive) | Ki [7]: > 1.58 µM (inactive) | Ki [8]: > 10 µM (inactive) | Ki [9]: > 2.51 µM (inactive) | Ki [10]: 6.31 µM (active) | Ki [11]: > 3.16 µM (inactive) | Ki [12]: > 3.16 µM (inactive) | Ki [13]: 0.1 µM (active) | Ki [14]: > 10 µM (inactive) | Ki [15]: > 7.94 µM (inactive) | Ki [16]: > 1.26 µM (inactive) | Ki (Activated CDC42 kinase 1): > 3.98 µM (inactive) | Ki [17]: 0.126 µM (active) | Ki [18]: > 3.98 µM (inactive) | Ki [19]: 0.398 µM (active) | Ki [20]: > 3.98 µM (inactive) | Ki [21]: > 1 µM (inactive) | Ki [22]: 0.794 µM (active)
